Experimental data from ChEMBL document CHEMBL4602653, “Neuraminidase-triggered activation of prodrug-type substrate of 4-nitroaniline” (Bioorg Med Chem Lett, 2020).

Experiments:
Type in all cases: ADME
Conditions in all cases: isolated protein, 6000 µM
[1] = Drug metabolism assessed as Clostridium perfringens neuraminidase-mediated drug decomposition by measuring ratio of alpha-H3-(equitorial)-N-acetyl-neuraminic acid to beta-H3-(equitorial)-N-acetyl-neuraminic acid at 6 mM measured over 10 hrs by 1H-NMR analysis
[2] = Drug metabolism assessed as Clostridium perfringens neuraminidase-mediated drug decomposition resulting in formation of alpha-H3-(axial)-N-acetyl-neuraminic acid at 1.83 ppm at 6 mM measured over 10 hrs by 1H-NMR analysis
[3] = Drug metabolism assessed as Clostridium perfringens neuraminidase-mediated formation of para-quinone methide by measuring 4-hydroxy benzyl alcohol formation at 6.90 to 7.29 ppm at 6 mM measured after 10 hrs by 1H-NMR analysis
[4] = Drug metabolism assessed as Clostridium perfringens neuraminidase-mediated drug decomposition resulting in formation of alpha-H3-(equitorial)-N-acetyl-neuraminic acid at 2.74 ppm at 6 mM measured over 10 hrs by 1H-NMR analysis
[5] = Drug metabolism assessed as Clostridium perfringens neuraminidase-mediated formation of free N-acetyl-neuraminic acid at 6 mM measured after 75 hrs by 1H-NMR analysis
[6] = Drug metabolism assessed as Clostridium perfringens neuraminidase-mediated drug decomposition resulting in formation of beta-H3-(equitorial)-N-acetyl-neuraminic acid at 2.21 ppm at 6 mM measured over 10 hrs by 1H-NMR analysis
[7] = Drug metabolism assessed as Clostridium perfringens neuraminidase-mediated drug decomposition resulting in formation of alpha-H3-(axial)-N-acetyl-neuraminic acid at 1.62 ppm at 6 mM measured over 10 hrs by 1H-NMR analysis
[8] = Drug metabolism assessed as Clostridium perfringens neuraminidase-mediated drug decomposition by measuring ratio of alpha-H3-(axial)-N-acetyl-neuraminic acid to beta-H3-(axial)-N-acetyl-neuraminic acid at 6 mM measured over 10 hrs by 1H-NMR analysis

With `CC(=O)N[C@H]1[C@H]([C@H](O)[C@H](O)CO)OC(Oc2ccc(COC(=O)Nc3ccc([N+](=O)[O-])cc3)cc2)(C(=O)O)C[C@@H]1O` (stereo partly drawn) the Ratio [1] was 7.6, the Drug metabolism [2] was “Metabolite_Detected” and the Drug metabolism [3] was “Metabolite_Detected”. For the same molecule, the Drug metabolism [4] was “Metabolite_Detected”, the Drug metabolism [5] was “Metabolite_Detected” and the Drug metabolism [6] was “Metabolite_Detected”. For the same molecule, the Drug metabolism [7] was “Metabolite_Detected” and the Ratio [8] was 92.4.
